Results taken from ChEMBL document CHEMBL1201862, “PubChem BioAssay data set” (2004).
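Five concentrations, 48 hours, 96-well plates. GI50 = concentration required for 50% inhibition of growth.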 Active and inactive are the calls of the source. Rule as the data show it: active = GI50 up to about 1.1 µM and inactive = higher.

Legend:
Assay in all cases: growth of human tumour cells (NCI), 48 h
[1] = tested on: CCRF-CEM
[2] = tested on: COLO 205
[3] = tested on: DMS-114
[4] = tested on: EKVX
[5] = tested on: HOP-62
[6] = tested on: HOP-92
[7] = tested on: KM-20L2
[8] = tested on: M14
[9] = tested on: M19-MEL
[10] = tested on: NCI-H23
[11] = tested on: NCI-H460
[12] = tested on: NCI-H522
[13] = tested on: OVCAR-4
[14] = tested on: SF-268
[15] = tested on: SK-MEL-5
[16] = tested on: SNB-19
[17] = tested on: MCF7
[18] = tested on: MDA-MB-231
[19] = tested on: PC-3

| Structure (SMILES) | GI50 [1] | GI50 [2] | GI50 [3] | GI50 [4] | GI50 [5] | GI50 [6] | GI50 [7] | GI50 [8] | GI50 [9] | GI50 [10] | GI50 [11] | GI50 [12] | GI50 [13] | GI50 [14] | GI50 [15] | GI50 [16] | GI50 [17] | GI50 [18] | GI50 [19] |
| --- | --- | --- | --- | --- | --- | --- | --- | --- | --- | --- | --- | --- | --- | --- | --- | --- | --- | --- | --- |
| CCc1ccccc1NC(=O)C1=C(C)NC(C)=C(C(=O)Nc2ccccc2CC)C1c1ccccc1Cl | 37.8 µM (inactive) | > 100 µM (inactive) | > 100 µM (inactive) | > 100 µM (inactive) | > 100 µM (inactive) | 57.1 µM (inactive) | > 100 µM (inactive) | > 100 µM (inactive) | > 100 µM (inactive) | > 100 µM (inactive) | > 100 µM (inactive) | 69.5 µM (inactive) | > 100 µM (inactive) | > 100 µM (inactive) | > 100 µM (inactive) | > 100 µM (inactive) |  |  |  |
| Cc1occc1C(=S)Nc1ccc(Cl)c(C(=O)OC(C(C)C)C(C)C)c1 | 7.16 µM (inactive) | 9.59 µM (inactive) |  | 8 µM (inactive) | 17.2 µM (inactive) | 7.82 µM (inactive) |  | 12.7 µM (inactive) |  | 8.15 µM (inactive) | 13.6 µM (inactive) | 11.8 µM (inactive) | 14.7 µM (inactive) | 18.5 µM (inactive) | 14.6 µM (inactive) | 21.3 µM (inactive) | 13.1 µM (inactive) | 12.6 µM (inactive) | 7.46 µM (inactive) |
| NC1=NC(c2ccc(Cl)cc2)N(c2ccc(S(N)(=O)=O)cc2)C(N)=N1 (stereo unspecified) | > 100 µM (inactive) | > 100 µM (inactive) |  | > 100 µM (inactive) | > 100 µM (inactive) | > 100 µM (inactive) |  | > 100 µM (inactive) |  | > 100 µM (inactive) | > 100 µM (inactive) | > 100 µM (inactive) | > 100 µM (inactive) | > 100 µM (inactive) | > 100 µM (inactive) | > 100 µM (inactive) | > 100 µM (inactive) | > 100 µM (inactive) | > 100 µM (inactive) |
| CC(C)(C)c1ccc(S(=O)(=O)N2C(c3cccc(C4CC[C@@H](C(=O)O)N4S(=O)(=O)c4ccc(C(C)(C)C)cc4)c3)CC[C@H]2C(=O)O)cc1 (stereo partly specified) | 33 µM (inactive) | 34 µM (inactive) |  | 30.1 µM (inactive) | 98.4 µM (inactive) | 58.1 µM (inactive) |  | 54.1 µM (inactive) |  | 40.2 µM (inactive) | 47.9 µM (inactive) | 38.7 µM (inactive) | 54.8 µM (inactive) | 77.8 µM (inactive) | 57.7 µM (inactive) | 59.3 µM (inactive) | 44 µM (inactive) | > 100 µM (inactive) | 32.7 µM (inactive) |
| CCOc1ccc(NCC2CC/C(=C\c3ccc(O)cc3)C2=O)cc1 (stereo unspecified) | 5.87 µM (inactive) | 13.6 µM (inactive) |  | 20.5 µM (inactive) | 37.8 µM (inactive) | 15.2 µM (inactive) |  | 18.1 µM (inactive) |  | 23.3 µM (inactive) | 23.2 µM (inactive) | 6.14 µM (inactive) | 17.2 µM (inactive) | 15.8 µM (inactive) | 19.1 µM (inactive) | 25.5 µM (inactive) | 3.61 µM (inactive) | 19.2 µM (inactive) | 16.9 µM (inactive) |
| CN1C(c2ccccc2)CC(=Nc2ccccc2)CC1c1ccccc1 (stereo unspecified) | 16.2 µM (inactive) | 10.7 µM (inactive) |  | 16.2 µM (inactive) | 18 µM (inactive) | 7.78 µM (inactive) | 13.3 µM (inactive) | 13.5 µM (inactive) | 4.58 µM (inactive) | 15.6 µM (inactive) | 13.5 µM (inactive) | 4.65 µM (inactive) | 10.4 µM (inactive) | 10.8 µM (inactive) | 10.9 µM (inactive) | 14.3 µM (inactive) |  |  |  |
| Cc1ccc(S(=O)(=O)N/N=C/C2(c3ccccc3)c3ccccc3-c3ccccc32)cc1 | 4.16 µM (inactive) | 3.62 µM (inactive) |  | 8.95 µM (inactive) | 17.7 µM (inactive) | 12.6 µM (inactive) |  | 10.9 µM (inactive) |  | 15.5 µM (inactive) | 5.06 µM (inactive) | 13 µM (inactive) | 10.3 µM (inactive) | 14 µM (inactive) | 11.6 µM (inactive) | 18.7 µM (inactive) | 6.98 µM (inactive) | 6.64 µM (inactive) | 3.38 µM (inactive) |
| COC1=CC(=O)c2nc3ccccc3c3ccnc1c23 | 4.4 µM (inactive) | 6.64 µM (inactive) |  | 12.6 µM (inactive) | 5.74 µM (inactive) | 15.8 µM (inactive) |  | 2.9 µM (inactive) |  | 1.35 µM (inactive) | 0.434 µM (active) | 2.22 µM (inactive) | 4.89 µM (inactive) | 3.94 µM (inactive) | 0.653 µM (active) | 12.4 µM (inactive) | 1.95 µM (inactive) | 7.8 µM (inactive) | 1.81 µM (inactive) |
| C(=C\c1nccs1)/c1cccc(/C=C/c2nccs2)n1 | > 50 µM (inactive) | > 50 µM (inactive) |  | 49 µM (inactive) | > 50 µM (inactive) | > 50 µM (inactive) |  | > 50 µM (inactive) |  | > 50 µM (inactive) | > 50 µM (inactive) | > 50 µM (inactive) | > 50 µM (inactive) | > 50 µM (inactive) | > 50 µM (inactive) | > 50 µM (inactive) | 18.8 µM (inactive) | > 50 µM (inactive) | > 50 µM (inactive) |
| CCCCCCCCCCCCCCCCCCNc1nc(=O)n(C2CC(O)C(COP(=O)(O)OCC3OC(n4ccc(N)nc4=O)C(O)C3O)O2)cc1F (stereo unspecified) | > 100 µM (inactive) | 26.9 µM (inactive) |  | > 100 µM (inactive) | 18.7 µM (inactive) | 31.1 µM (inactive) |  | 9.35 µM (inactive) |  | 16 µM (inactive) | 4.5 µM (inactive) | 3.8 µM (inactive) | 93.5 µM (inactive) | 32.1 µM (inactive) | > 100 µM (inactive) | 10.6 µM (inactive) | 6.7 µM (inactive) | 27.7 µM (inactive) | 28.6 µM (inactive) |
| C=C1C(=O)C2(C)OC2(C)C1C(=O)O (stereo unspecified) | > 100 µM (inactive) | > 100 µM (inactive) |  | > 100 µM (inactive) | > 100 µM (inactive) | > 100 µM (inactive) |  | > 100 µM (inactive) |  | > 100 µM (inactive) | > 100 µM (inactive) | > 100 µM (inactive) | > 100 µM (inactive) | > 100 µM (inactive) | > 100 µM (inactive) | > 100 µM (inactive) | > 100 µM (inactive) | > 100 µM (inactive) | > 100 µM (inactive) |
| O=C([O-])Cc1ccccc1.[Na+] [SODIUM PHENYLACETATE] | 671 µM (inactive) | 1340 µM (inactive) |  | > 2000 µM (inactive) | 200 µM (inactive) | 359 µM (inactive) |  | > 2000 µM (inactive) |  | > 2000 µM (inactive) | 342 µM (inactive) | 618 µM (inactive) | 255 µM (inactive) | 1340 µM (inactive) | 869 µM (inactive) | > 2000 µM (inactive) | > 2000 µM (inactive) | 174 µM (inactive) | > 2000 µM (inactive) |
| COc1ccc(-c2cc(-c3ccccc3)nc(N)n2)c(O)c1 | 4.59 µM (inactive) | > 100 µM (inactive) |  | > 24.9 µM (inactive) | > 49.5 µM (inactive) | > 43 µM (inactive) |  | > 27.3 µM (inactive) |  | > 100 µM (inactive) | 5.04 µM (inactive) | 2.78 µM (inactive) | > 74.6 µM (inactive) | 17.8 µM (inactive) | 7.16 µM (inactive) | > 82.8 µM (inactive) | 0.984 µM (active) | > 26.2 µM (inactive) | 6.68 µM (inactive) |
| COc1ccc2c3c1OC1C34CCN(C)C(C2)C4=CC(I)C1(OC)OC (stereo unspecified) | 1.32 µM (inactive) | 13.9 µM (inactive) |  | 14.4 µM (inactive) | 8.77 µM (inactive) | 11.4 µM (inactive) |  | 14.3 µM (inactive) |  | 7.41 µM (inactive) | 13.5 µM (inactive) | 5.27 µM (inactive) | 13.2 µM (inactive) | 16.7 µM (inactive) | 12 µM (inactive) | 16.2 µM (inactive) | 5.08 µM (inactive) | 18.5 µM (inactive) | 10.2 µM (inactive) |
| C=C(CCOC)CCC1CCCCC(=C)[C@H]1OC(C)=O (stereo partly specified) | > 100 µM (inactive) | > 100 µM (inactive) |  | > 100 µM (inactive) | > 100 µM (inactive) | > 100 µM (inactive) |  | > 100 µM (inactive) |  | 93.8 µM (inactive) | > 100 µM (inactive) | 41.8 µM (inactive) | > 100 µM (inactive) | > 100 µM (inactive) | 63.2 µM (inactive) | > 100 µM (inactive) | > 100 µM (inactive) | > 100 µM (inactive) | > 100 µM (inactive) |
| CC1(C)N=C(N)N=C(N)N1c1cccc(OCc2cccc([N+](=O)[O-])c2)c1 | 5.4 µM (inactive) | 9.93 µM (inactive) |  | > 78.3 µM (inactive) | > 76 µM (inactive) | > 100 µM (inactive) |  | 51.8 µM (inactive) |  | 7.26 µM (inactive) | 1.6 µM (inactive) | 8.91 µM (inactive) | 39.6 µM (inactive) | 9.75 µM (inactive) | 4.86 µM (inactive) | 11.5 µM (inactive) | 34.1 µM (inactive) | > 53.8 µM (inactive) | 14.4 µM (inactive) |
| C(CCc1nnc2c(n1)CCCC2)Cc1nnc2c(n1)CCCC2 | > 100 µM (inactive) | > 100 µM (inactive) |  | > 100 µM (inactive) | > 100 µM (inactive) | > 100 µM (inactive) |  | > 100 µM (inactive) |  | > 100 µM (inactive) | > 100 µM (inactive) | > 100 µM (inactive) | > 100 µM (inactive) | > 100 µM (inactive) | > 100 µM (inactive) | > 100 µM (inactive) | > 100 µM (inactive) | > 100 µM (inactive) | 85.7 µM (inactive) |
